From PubChem BioAssay (NCI)
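The compound was tested at five concentrations on cells cultured in 96-well plates, with a 48-hour exposure period. Abbreviation: GI50, concentration required for 50% inhibition of growth. The concentration for full growth arrest is given as TGI.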

Key:
Test in all cases: DTP human tumour cell line panel, 48 h
HCT-15 colon = tested on: HCT-15 colon
PC-3 prostate = tested on: PC-3 prostate
786-0 renal = tested on: 786-0 renal
SK-MEL-2 melanoma = tested on: SK-MEL-2 melanoma
MOLT-4 leukemia = tested on: MOLT-4 leukemia
SF-268 CNS = tested on: SF-268 CNS
CAKI-1 renal = tested on: CAKI-1 renal
ACHN renal = tested on: ACHN renal
M14 melanoma = tested on: M14 melanoma
SW-620 colon = tested on: SW-620 colon

Compound | GI50 (HCT-15 colon) | TGI (HCT-15 colon) | GI50 (PC-3 prostate) | TGI (PC-3 prostate) | GI50 (786-0 renal) | TGI (786-0 renal) | GI50 (SK-MEL-2 melanoma) | TGI (SK-MEL-2 melanoma) | GI50 (MOLT-4 leukemia) | TGI (MOLT-4 leukemia) | GI50 (SF-268 CNS) | TGI (SF-268 CNS) | GI50 (CAKI-1 renal) | TGI (CAKI-1 renal) | GI50 (ACHN renal) | TGI (ACHN renal) | GI50 (M14 melanoma) | TGI (M14 melanoma) | GI50 (SW-620 colon) | TGI (SW-620 colon)
CS(=O)(=O)Nc1cccc(-c2cc(-c3ccccc3Cl)c(C#N)c(N)n2)c1 | 0.402 µM | 15.8 µM | 0.531 µM | 14.1 µM | 0.803 µM | 14.4 µM | 0.602 µM | 15.8 µM | 0.894 µM | > 51.5 µM | 1.05 µM | 19.1 µM | 0.502 µM | 24.4 µM | 0.679 µM | 17.6 µM | 0.464 µM | 14.6 µM | 0.425 µM | 16.7 µM
COC(=O)Nc1nc2ccc(C(=O)c3ccc(N(C)C4COC4)cc3)cc2[nH]1 | 0.303 µM | > 100 µM | 0.379 µM | > 100 µM | 0.5 µM | > 100 µM | 0.593 µM | > 100 µM | 0.672 µM | > 100 µM | 0.745 µM | > 100 µM | 0.435 µM | > 100 µM | 0.846 µM | > 100 µM | 0.279 µM | > 100 µM | 0.355 µM | > 100 µM
O=C(O)c1cc2ccccc2c(N=Nc2cc(C(F)(F)F)ccc2Cl)c1O |  | > 100 µM |  | > 100 µM |  | > 100 µM |  | > 100 µM |  | > 100 µM |  | > 100 µM |  | > 100 µM |  | > 100 µM |  | > 100 µM |  | > 100 µM
COc1ccc(C[C@@H]2NC[C@@H](O)[C@@H]2OC(C)=O)cc1 |  | 0.19 µM |  | 0.255 µM | 9 µM |  |  | 0.3 µM | 2.81 µM |  | 4.37 µM |  | 30.3 µM |  | 9.5 µM |  | 11.8 µM |  | 4.16 µM | 
COc1cc2c3c(n(CCCNCCCNCCCNCCCN)c(=O)c2cc1OC)-c1cc2c(cc1C3=O)OCO2 | 6.77 µM | 29 µM | 3.31 µM | 14.8 µM | 2.31 µM | 7.68 µM | 4.78 µM | 89 µM | 0.369 µM | 2.57 µM | 1.7 µM | 4.33 µM | 1.78 µM | 3.8 µM | 3.1 µM | 12 µM | 2.84 µM | 14.2 µM | 2.18 µM | 13.9 µM
